Test results published in patent US7265091B2, “Methods and compositions for treating male erectile dysfunction” (The Regents of the University of California, priority 2000, dated 2007).
Where “and” joins values, the source holds several entries; their conditions need not be identical. Identical values can stand only once. Like-named read-outs stand apart in the source and are kept apart here.

What was measured:
VSMC (aorta SMC) [1] = conditions: VSMC from 16-weeks-old rats
Description: (§1) Primary aorta SMC cultures were prepared similarly with aortas isolated from 16-week-old male rats.
(§2) Cell migration assays were performed in 6.5-mm Transwell chambers of Corning Costar Corporation (Cambridge, Mass.). The Transwell inserts (upper chambers) were bathed in a solution containing 13.4 μg/ml fibronectin in PBS at 37° C. for 1 hr and allowed to air-dry. The dried upper chambers were then placed in the lower chambers, each of which contained 700 μl of serum-free DMEM supplemented with 0.1% BSA and 0 to 500 ng/ml of VEGF. SMC that had been grown to 70% confluence were further conditioned in serum-free DMEM (containing 0.1% BSA) for 2 hr and then trypsinized. The trypsinized cells were washed in PBS and resuspended at a concentration of 80,000 cells per ml in serum-free DMEM (containing 0.1% BSA). One hundred μl of the cell suspension was then added to each upper chamber. After 4 hr of incubation at 37° C., all liquid in the upper and lower chambers was removed by aspiration. The membranes in the upper chambers were subsequently fixed in 1% buffered formalin for 5 min and stained with 2% crystal violet. Non-migratory cells on the upper side of the membranes were scraped off with cotton swabs. Well locations were marked on the membranes and total cells per well were counted visually in a masked fashion. Well locations were then correlated with the concentrations of VEGF in the wells. […]

[2] = system: Erectile Dysfunction Induced by Hypercholesterolemia in a Rat Model; assay: Erectile function in rats fed a high cholesterol diet (Example 5); assay type: in vivo; conditions: 6 months cholesterol diet, 4 months after intracavernous treatment
Description: Twenty-one Sprague-Dawley rats were used. All rats were fed a 2.5% cholesterol diet with added lard starting at 2 weeks of age for 6 months. The rats were divided into three groups. All groups after two months of a high cholesterol diet underwent serum evaluation of cholesterol and intracavernous injection of saline or treatment. Group 1, the control group, received intracavernous injection of saline, group 2, the VEGF group, received intracavernous injection of 4 ug of VEGF, and group 3, the AAV-BDNF group received 15 ug of BDNF. After six months of cholesterol diet and 4 months of treatment, all rats were subjected to cavernous nerve electrostimulation, cavernosometry with intracavernous papaverine injection, and infusion cavernosometry with heparinized saline to measure erectile function.

[3] = system: outgrowing blood vessels in artery-muscle co-culture; assay: Artery-muscle co-culture; assay type: cell-based
Source text: We extended our above angiogenesis model to include muscles in a co-culture system. The source of muscle was corpus cavernosum, urethra sphincter, or bladder. […] In addition, the combination of VEGF and PDGF encouraged more extensive contacts between the outgrowing vessels with the muscle. More studies with either single or a combination of other growth factors and the molecular mechanism of vessel growth are currently underway. Once the best growth factor or combinations are identified, we will perform in vivo studies in rats with severe vasculogenic ED to see if the in vitro assay helps identify the best angiogenins.

[4] = system: cavernous smooth muscle cells (CSMC); conditions: 4 hr
Description: as §1, §2

[5] = system: dorsal nerve, intracavernous smooth muscle cells and endothelial cells; assay: Transmission electron microscopy of penile tissue (Example 2); assay type: in vivo, rat
Source text: Thick sections were cut and stained with toluidine blue to select specific areas for thin sectioning. Thin sections were cut, stained with both uranyl acetate and Reynold's Lead, and examined under the Phillips Tecnai 10 transmission electron microscope. Penile tissues from 4 randomly chosen rats in each subgroups were subjected to electron microscopic examinations.

[6] = system: established venogenic erectile dysfunction in castrated rats; conditions: castrated rats with venous leak, 1 month following VEGF treatment
Description: These animals (n=8) were treated with intracavernous VEGF protein and then after one month cavernosometry repeated to measure the effect of VEGF treatment.
A 1.5 cm oblique incision was made in the lower abdominal skin extending from the midline just above the penile hilum to below the level of the glans about 1 cm lateral to the midline. The skin was sharply dissected from the anterior surface of the penis and then the penis was retracted anteriorly using a towel clamp placed around it atraumatically with the foreskin left intact. Using blunt dissection the penile base and crura were exposed. The ischiocavernosus muscles were sharply dissected off the anterior surface of the crus until the white of the tunica albuginea of the corpora cavernosa was identified. The crus was then gently cannulated using a 23 gage butterfly needle, and saline flush with a visual erectile response was used to confirm that the needle tip was truly intracavernosal. The intracavernosal injections were then administered with either VEGF protein (Calbiochem, La Jolla, Calif. #676472) at the dosage 4 ug/injection (in 0.1 cc PBS with 0.1% BSA), AAV-VEGF (10^10 viral particles in 0.1 cc NS), AAV-LacZ (10^10 viral particles in 0.1 cc NS), or 0.1 ml NS alone. The AAV-VEGF and AAV-LacZ constructs were a generous gift from Dr. Yuet W. Kan (Howard Hughes Medical Research Institute, San Francisco, Calif.).^19,20 Following injection, the needle was left in place for 5 minutes and then removed to allow the medication to diffuse throughout the cavernosal space. Immediately thereafter, pinpoint electrocautery was applied to the needle hole for hemostasis and then the wound was closed and the animal recovered as above.
To perform pharmacologic cavemosometry, both the right and left crura were separately cannulated using 23 gauge butterfly needles as described above. […] The baseline ICP was recorded (flaccid ICP) and then a dose of papavarine (1 mg in 0.1 cc NS) was administered through the infusion cannula. […] After 5 minutes more, the ICP was again recorded (ICP after papavarine) and the infusion started. […] By slowly adjusting the inflow rate, an intracorporal pressure of 100 cm H2O (erectile pressure) was reached and the infusion rate required to maintain this pressure recorded (the maintenance rate). After this pressure was steady for 20 seconds, the infusion was terminated and the change in ICP over the subsequent 60 seconds was recorded (the drop rate).

[7] = system: cavernous smooth muscle cells (CSMC); conditions: CSMC from rats of all ages, three days, serum-free medium
Description: (§3) Each primary culture of CSMC was prepared from the corpora cavernosa of 2-3 rats by the following procedure. The penis was cleared of the urethra, blood vessels, fat and connective tissue. The remaining smooth muscle tissue was washed 3 times in sterile PBS (phosphate-buffered saline) and cut into 2-3 mm^3 segments. The segments were placed evenly onto a 100-mm cell culture dish (Falcon-Becton Dickinson Labware, Franklin Lakes, N.J.) inside a cell culture hood. Approximately 10 min later, 10 ml of Dulbecco's Modified Eagle Medium (DMEM) containing penicillin (100 units/ml), streptomycin (100 μg/ml), and 10% FBS was carefully pipetted into the dish. The dish was then kept undisturbed in a humidified 37° C. incubator with 5% CO2. Five days later, tissue segments that have detached from the dish were removed, and the medium was replaced with fresh medium. Another 5 days later, all tissue segments were removed and the medium was again replaced with fresh medium. When small islands of cells were noticeable, they were trypsinized and transferred to a fresh culture dish. […]
(§4) Cell proliferation assays were performed with the CellTiter-96 kit from Promega Inc. (Madison, Wis.). […] After 4 hr of further incubation at 37° C. in the humidified, 5% CO2 incubator, color development, which reflects cell numbers, was recorded with a plate reader (Molecular Devices Corp., Sunnyvale, Calif.) at 490-nm absorbance. […]

VSMC (aorta SMC) [8] = conditions: VSMC from 16-weeks-old rats; remark: listed apart in the source
Description: as §3, §4

[9] = system: nNOS-positive nerve fibers in dorsal and intracavernous nerves; conditions: 2 & 4 μg VEGF, week 6; not statistically significant
[10] = system: Rat Model of Traumatic Arteriogenic Erectile Dysfunction
Source text: Bipolar platinum-wire electrodes were used to stimulate the cavernous nerve. The exposed end of the electrodes were hooked around the nerve to be stimulated, with the positive electrode being positioned proximally and the negative electrode two to three mm distally. Stimulus parameters were 1.5 volts, frequency of 20 pulses per second, pulse width of 0.2 msec, and the duration of 50 seconds. Intracavernous pressure was monitored and recorded by inserting a number 23 scalp vein needle to one of the crura and connected to a pressure monitor.

[11] = castrated rats treated with VEGF or AAV-VEGF (pooled)

Question: Which results are given for VEGF?
Answer: effect on migration of VSMC (VSMC (aorta SMC) [1]): stimulated migration; effect on erectile dysfunction caused by high cholesterol diet [2]: seem to reverse the erectile dysfunction; sustained intracavernous pressures during the pharmacologic erection phase of cavernosometry, vs high cholesterol controls [2]: significantly higher; cell growth in artery-muscle co-culture [3]: encourage the growth of endothelial cells; VEGF concentration of peak CSMC migration ([4]; CSMC from 1-week-old rats): 1 ng/mL; optimal dosage of VEGF for CSMC migration ([4]; CSMC from young and old rats except 1-week-old): 10 ng/mL; endothelial cells lining capillaries and sinusoids ([5]; castrated rats): endothelial hypertrophy and hyperplasia; mean diameter of non-myelinated axons, dorsal nerve [5, 11]: 0.96±0.33 μm; mean diameter of the myelinated nerve, dorsal nerve [5, 11]: 2.36±0.92 μm; mean thickness of myelin sheath, dorsal nerve [5, 11]: 0.93±0.44 μm; intracavernous smooth muscle morphology ([5]; castrated rats, compared to castrated+Lac Z rats): arranged in clusters with minimal intercellular spaces; Drop Rate in 1 min. [6]: 17.4 cm H2O and 17.4(+/−24) cm H2O; Flaccid ICP [6]: 25.3 cm H2O; ICP After Papavarine [6]: 84 cm H2O and 83.9 cm H2O; Maintenance Rate [6]: 0.08 ml/min and 0.08(+/−0.15) ml/min; optimal dosage of VEGF for CSMC growth rate [7]: 12.5 ng/mL; effect on growth of VSMC (VSMC (aorta SMC) [8]): did not stimulate growth; recovery of nNOS-positive nerve fibers in dorsal and intracavernous nerves [9]: moderate recovery; Peak sustained intracavernous pressure during electrostimulation of the cavernous nerves ([10]; 2 μg VEGF intracavernous, Week 1): 23.50 ± 2.38 cm H20; Peak sustained intracavernous pressure during electrostimulation of the cavernous nerves ([10]; 2 μg VEGF intracavernous, Week 2): 43.00 ± 8.37 cm H20; Peak sustained intracavernous pressure during electrostimulation of the cavernous nerves ([10]; 2 μg VEGF intracavernous, Week 6): 69.00 ± 8.83 cm H20; Peak sustained intracavernous pressure during electrostimulation of the cavernous nerves ([10]; 4 μg VEGF intracavernous, Week 1): 71.17 ± 16.89 cm H20; Peak sustained intracavernous pressure during electrostimulation of the cavernous nerves ([10]; 4 μg VEGF intracavernous, Week 2): 86.25 ± 8.18 cm H20; Peak sustained intracavernous pressure during electrostimulation of the cavernous nerves ([10]; 4 μg VEGF intracavernous, Week 6): 96.67 ± 13.50 cm H20; improvement in intracavernous pressure compared with the PBS-treated group ([10]; 2-μg and 4-μg groups, week 6): statistically significant improvement; recovery of erectile function ([10]; 4-μg group, weeks 1 and 2): moderate recovery
